# Results as given in the METLIN SMRT retention time set (Domingo-Almenara et al. 2019).
# Assay: gradient 5% acetonitrile 3 min, to 50% in 2 min, to 85% in 15 min, held 3 min, 100 µL/min
# Details: column: Zorbax Extend-C18 2.1 x 50 mm; eluents: water / acetonitrile, 0.1% formic acid
# How it was run: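 Each retention time is based on an adduct peak selected computationally and verified by manual inspection. Measurements used HPLC–quadrupole time-of-flight mass spectrometry in positive and negative ionization mode on mixtures of ~100 pure standards. Chromatography ran on a Zorbax Extend-C18 column (2.1 × 50 mm, 1.8 μm) at 100 μL/min with water and acetonitrile, each containing 0.1% formic acid, and dead and dwell volumes of 40 μL and 900 μL.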
row,Structure (SMILES),RP-LC retention time [s]
1,N#Cc1cccc(C(=O)NC2CCN(c3cc(-c4ccccc4)[nH]n3)C2)c1 (stereo not drawn),691
2,Cc1cc(C)cc(NS(=O)(=O)c2cc(-c3[nH]ncc3C(=O)N3CCOCC3)oc2C)c1,731
3,O=C(COc1ccc2c(c1)C(=O)CC2)NCCC1=CCCCC1,827
4,Cc1ccc2nc(N3CCN(C)CC3)c(-c3noc(-c4ccccc4)n3)cc2c1,715
5,COc1cccc(-c2ccnc3nc(-c4cccs4)nn23)c1,906
6,CC(=O)Nc1ccc(-c2noc(C3CCCN(C(=O)c4ccoc4)C3)n2)cc1 (stereo not drawn),731
7,NC[C@@H]1O[C@H](c2ccccc2)Cc2c1ccc(O)c2O,662
8,COc1ccc(N2CC(c3nc(-c4ccc(Br)cc4)no3)CC2=O)cc1OC (stereo not drawn),977
9,O=C(NCCn1ncccc1=O)c1cccc(C(F)(F)F)c1,646
10,Cc1ccc(NC(=O)C2CCN(S(C)(=O)=O)c3cc(Cl)ccc3O2)c(C)c1 (stereo not drawn),992
11,Cc1cc(NC(=O)C2CCCN(c3nnc4cccc(C)n34)C2)ccc1F (stereo not drawn),721
12,Cc1ccc(C)c(N2CCN(C(=O)c3[nH]c(C)c(S(=O)(=O)N4CCOCC4)c3C)CC2)c1,928
13,CCc1ccccc1NC(=O)C1CCCN(S(=O)(=O)c2cc(-c3noc(C)n3)cs2)C1 (stereo not drawn),974
14,Cc1noc(C2CN(C(=O)Nc3ccc(Cl)cc3F)CC23CCOCC3)n1 (stereo not drawn),769
15,COc1ccc(-c2noc(CN3N=NC4C(=O)N(c5ccc(OC)c(OC)c5)C(=O)C43)n2)c(OC)c1 (stereo not drawn),800
16,Cc1ccc(S(=O)(=O)NCC(=O)Oc2ccccc2C)cc1,881
17,CC(CCc1ccco1)NC(=O)C1CCc2nc(N3CCCCC3)ncc2C1 (stereo not drawn),777
18,Cc1ccccc1Cn1cc(-c2ccncc2)cc1C(=O)NCC1CC1,704
19,COc1ccccc1-c1nc(C2CCN(C(=O)c3n[nH]c4c3CCCC4)CC2)no1,759
20,O=C(NCc1ccc(Cl)cc1)c1ccc(Oc2nccnc2N2CCSCC2)cc1,986
21,CC1CCN(C(=O)c2cc3c(s2)CCC(C(=O)N2CCCC2)C3)CC1 (stereo not drawn),849
22,Cc1cccc(S(=O)(=O)N2CCCC(Cn3c(C4CC4)nc4cccnc43)C2)c1 (stereo not drawn),791

row,Structure (SMILES),RP-LC retention time [s]
1,COc1ccc(-c2ccnc3nc(C4CC4)nn23)c(F)c1,797
2,O=C(Cc1ccc(F)cc1)NC(c1ccccc1)c1nnc(N2CCOCC2)o1 (stereo not drawn),743
3,CCOc1ccc(N2C(=O)Nc3ccccc3C2(O)C(=O)NCCCN2CCC(C)CC2)cc1 (stereo not drawn),582
4,Cc1cc2nc(CSc3nnc(-c4cccc(Cl)c4)o3)cc(=O)n2o1,792
5,Cc1ccc(N2CCC(NC(=O)Nc3cc(C)ccc3C)C2=O)cc1 (stereo not drawn),618
6,Cc1ccc(S(=O)(=O)c2cnc(N3CCc4ccccc4C3)nc2N)cc1C,1150
7,CC(NC(=O)Cc1cccn1-c1ccc(Cl)cc1)c1ccccn1 (stereo not drawn),790
8,O=C(NCc1ccc(N2CCN(c3ccccn3)CC2)cc1)c1ccoc1,624
9,Cn1c(=O)n(Cc2ccc(Br)cc2F)c(=O)c2cnc(-c3cccnc3)nc21,968
10,Cc1ccc(-c2noc(CN3N=NC4C(=O)N(c5cccc(F)c5)C(=O)C43)n2)cc1 (stereo not drawn),1020
11,Cc1cc(N2CCN(c3ccccn3)CC2)n2nc(-c3ccccc3)c(C)c2n1,614
12,O=S(=O)(c1ccccc1)N1CC(n2cc(COc3ccc(F)cc3)nn2)C1,888
13,CCOCCOC(=O)C1=C(C)NC2=C(C(=O)C(C(=O)OC)C(C)C2)C1c1ccccc1F (stereo not drawn),862
14,CCCn1c(=O)sc2cc(S(=O)(=O)N3CCC(C(=O)NC4CCCC4)CC3)ccc21,890
15,CC1CCc2[nH]nc(C(=O)N3CCN(C(C)C)CC3)c2C1 (stereo not drawn),588
16,Cc1ccc(-n2c(N3CCCC(C(=O)NCCC(C)C)C3)nc3ccsc3c2=O)cc1 (stereo not drawn),955
17,CCn1cc(C)c(C(=O)O)c1CC(=O)N1CCOCC1,619
18,CC1(C)CC(=O)c2cn(-c3ccccc3)c(=O)c(C(=O)NCc3cccs3)c2C1,924
19,O=C(NCc1ccco1)C(=O)c1cccn1Cc1ccc(F)cc1,962
20,O=C(CCc1c(-c2ccc(Cl)cc2)nc2ccccn12)NC1CCCCCC1,712
21,O=C([C@@H]1C[C@H](F)CN1C(=O)Nc1ccc(F)cc1)N1CCCCC1,690
22,COc1ccc(C(=O)NC2CCN(c3cc(-c4cccs4)[nH]n3)C2)cc1OC (stereo not drawn),638

row,Structure (SMILES),RP-LC retention time [s]
1,COc1ccccc1-c1nc(C2CC(=O)N(c3ccc(Cl)cc3)C2)no1 (stereo not drawn),1020
2,COc1cnc(NS(=O)(=O)c2ccc(N)cc2)nc1,675
3,CSc1ncc(Cl)c(C(=O)Nc2cc(C)on2)n1,783
4,COC(CNC(=O)C1CCN(C(=O)c2ncn3c2COC(c2ccc(F)cc2)C3)CC1)OC (stereo not drawn),674
5,COc1ccc(Cl)cc1NC(=O)c1cnc(N2CCN(c3ncccn3)CC2)c2ccccc12,1090
6,CCOc1ccc(NC(=O)Cn2ncc3c(c2=O)N(C2CC2)C(=O)CS3)cc1,671
7,O=C(CC1CCCC1)NCCc1noc(C2CC2)n1,713
8,O=C(NCCc1csc(-c2cccs2)n1)C1CCN(C(=O)c2ccc(F)c(F)c2)CC1,809
9,CCCCN1CCCC1CNC(=O)c1cc(C#N)c2ccccc2c1OC (stereo not drawn),781
10,CCOC(=O)c1cc(C)nc2c1c(=O)n(Cc1ccc(F)cc1)c(=O)n2C,1070
11,O=C(NC(C(=O)N1CCCc2ccccc21)c1ccccc1)c1cnccn1 (stereo not drawn),932
12,Cc1nn(C)c(C)c1C(=O)N1CC(n2cc(COc3ccc(F)cc3)nn2)C1,712
13,CCn1nnc2cc(-c3noc(CNC(=O)Cc4ccccc4)n3)ccc21,767
14,COc1ccccc1OCCNC(=O)c1ccc2c(=O)n(-c3ccccc3)c(N3CCCC3)nc2c1,834
15,CC(=O)Nc1ccc2c(c1)CN(C(=O)Cc1ccccc1F)C(C(=O)N(C)C)C2 (stereo not drawn),1080
16,Cc1cc(N2CCN(C(=O)c3ccc(Br)o3)CC2)nc(N2CCCC2)n1,636
17,Cc1ccc(Cl)cc1-n1ncc2c(=O)n(Cc3nc(-c4cccc(F)c4)no3)cnc21,1210
18,CC(C)(C)c1ccc(C(=O)Nc2nc3ccccc3[nH]2)cc1,778
19,COc1ccc(-c2nnc3n2CCN(Cc2cccc(C#N)c2)C3)cc1,667
20,CCn1ccc(C(=O)N2CCC3(CC2)c2nccn2-c2ccccc2CN3CC(C)C)n1,599
21,Cc1nc(-c2cccc(NC(=O)c3ccc(-n4ccnc4C)nn3)c2)cs1,581
22,CCn1c(=O)c(C)nc2cc(-c3noc(C4CC(=O)N(c5ccccc5)C4)n3)ccc21 (stereo not drawn),837

row,Structure (SMILES),RP-LC retention time [s]
1,CC1(COc2ccc3c(c2)ncn3-c2ccc3cccc(N4CCC(N)CC4)c3n2)COC1,667
2,O=C(NCc1ccccc1)C1CCc2nc(N3CCCCC3)ncc2C1 (stereo not drawn),720
3,CCOC(=O)c1nc2ccccc2nc1N1CCN(c2ccccn2)CC1,666
4,COc1ccc(C)cc1NC(=O)Cn1c(C)nc2c(sc3nc(-c4ccccc4)ccc32)c1=O,1110
5,Cc1nc(CC(=O)NC(C)c2ccccc2)sc1C(=O)NCc1ccccc1 (stereo not drawn),820
6,CC(C)NC(=O)c1ccc2c(c1)nc(CN(C)C(=O)Nc1ccc3c(c1)OCO3)n2C,606
7,CC(C)CCNC(=O)N1CCCC(C)(C(=O)NCc2ccccc2)C1 (stereo not drawn),834
8,CCCn1ncc(N2CCC(C(=O)NCc3cccs3)CC2)cc1=O,686
9,O=C(CN1C(=O)C2CCCCN2c2ccc(C(=O)N3CCCC3)cc21)Nc1cccc(Cl)c1 (stereo not drawn),676
10,COc1ccc(N2CC(c3noc(-c4ccc(C)c(C)c4)n3)CC2=O)cc1 (stereo not drawn),1030
11,O=C(CSc1nnc2c3sc(N4CCCC4)nc3ncn12)Nc1ccccc1,772
12,Cc1cc(C)n(-c2ccc(N3CCN(C(=O)COc4ncccn4)CC3)nn2)n1,596
13,O=C(NCCc1ccccc1)C(=O)NCCc1cccs1,832
14,COC(=O)c1ccc2c(=O)n(-c3cc(OC)cc(OC)c3)c(N3CCCC3)nc2c1,920
15,COc1ccc(C(C)NC(=O)Cn2c(C)cc(-c3nnc(C4CCC4)o3)c2C)cc1 (stereo not drawn),866
16,CCc1ccc(NC(=O)N2CC(c3nc(C)no3)C3(CCOCC3)C2)cc1 (stereo not drawn),770
17,Cc1cc(C)c(S(=O)(=O)N2CCCCC2)c(C)c1N(C)S(=O)(=O)c1ccccc1,1060
18,COc1ccc(NC(=O)c2cnc3c(c2)c(=O)n(C)c(=O)n3-c2ccc(C)cc2)cc1F,849
19,Cc1cc(N2CCN(C(=O)Nc3cccc(C)c3C)CC2)nc(N2CCOCC2)n1,633
20,Cc1ccc(-c2noc(CNC(=O)C3CCC(=O)N3S(=O)(=O)c3ccc(C)cc3)n2)cc1 (stereo not drawn),929
21,CCc1onc(C)c1C1CCCN1C(=O)CCc1ccc(OC)cc1 (stereo not drawn),839
22,O=C(C1CC(=O)N(c2ccc3c(c2)CCN3C(=O)C2CC2)C1)N1CCOCC1 (stereo not drawn),634
